Where two headings read alike, the source gives them in different places.

In assay [1] the target is T1, PaDHPase-S289A (Pseudomonas aeruginosa, UniProt Q9I676, S289A).
T1 construct: made in house; host or cells: Escherichia coli BL21 (DE3) (stated for the wild type; mutants purified by the same protocol)
Description: Fluorescence quenching titration of PaDHPase-S289A mutant. Format: binding. An excerpt:
(§1) The PaDHPase mutants were generated according to the QuikChange Site-Directed Mutagenesis kit protocol (Stratagene; La Jolla, CA, USA). The wild-type plasmid pET21b-PaDHPase was used as a template. The presence of the mutation was verified by DNA sequencing in each construct. The recombinant mutant proteins were purified using the protocol for the wild-type PaDHPase by Ni^2+-affinity chromatography (Table 1).
(§2) Through the fluorescence quenching analysis, the Kd value of the purified PaDHPase was determined. An aliquot of 5-AU was added into the solution containing PaDHPase (0.8 μM) and 50 mM HEPES at pH 7.0. The decrease in the intrinsic fluorescence of PaDHPase was measured at 336 nm upon excitation at 279 nm and 25°C with a spectrofluorimeter (Hitachi F-2700; Hitachi High-Technologies, Japan). The Kd was obtained using the equation: ΔF = ΔFmax − Kd(ΔF/[5-AU]).
(§3) Figure 4 Fluorescence titration of PaDHPase with 5-AU. (a) The fluorescence emission spectra of PaDHPase with 5-AU of different concentrations (0–300 μM). The decrease in intrinsic fluorescence of protein was measured at 336 nm upon excitation at 279 nm with a spectrofluorimeter. […] (b) The fluorescence emission spectra of PaDHPase-Y155A with 5-AU of different concentrations (0–300 μM). (c) The fluorescence emission spectra of PaDHPase-S289A with 5-AU. (d) The fluorescence emission spectra of PaDHPase-N337A with 5-AU. (e) The fluorescence emission spectra of PaDHPase-C318A with 5-AU. (f) The fluorescence emission spectra of Znα-PaDHPase with 5-AU. (g) An aliquot amount of 5-AU was added to the enzyme solution for determining the Kd. The Kd was obtained by the equation: ΔF = ΔFmax − Kd(ΔF/[5-AU]). Data points are an average of 2–3 determinations within 10% error.
(§4) 5-AU interacts with the main chains of residues Ser289 and Asn337 and the side chain of residue Tyr155. To investigate the contribution of individual amino acid residues to 5-AU binding, alanine substitution mutants (Table 2) were constructed and analyzed by fluorescence quenching (Figures 4(b)–4(d)).

The target in assay [2] is T2, Pseudomonas aeruginosa DHPase (PaDHPase) (Pseudomonas aeruginosa, UniProt Q9I676).
T2 construct: made in house; host or cells: Escherichia coli BL21 (DE3)
Description: Fluorescence quenching titration of wild-type PaDHPase. The assay is classed as binding. Here is the method: as §2
Prior to this study, whether 5-AU could bind to DHPase remained unknown. To confirm if PaDHPase is capable of binding 5-AU, we used the fluorescence quenching method to determine the binding ability of PaDHPase (Figure 4). Quenching is a complex formation process that decreases the fluorescence intensity of protein. […] When 5-AU was titrated into the PaDHPase solution, the intrinsic fluorescence of the protein was progressively quenched. Upon the addition of 300 μM 5-AU, the intrinsic fluorescence of PaDHPase was quenched by 87.3%.
as §3

The test system of assay [3] is biphasic interphase-mitotic (IM) cells. Also noted: method as in PMID 32328702. Particulars: cited from earlier work.
Assay [4] addresses T3, Znα-PaDHPase (mono-Zn PaDHPase) (Pseudomonas aeruginosa, UniProt Q9I676).
T3 construct: made in house; host or cells: Escherichia coli BL21 (DE3)
Put plainly: Fluorescence quenching titration of mono-Zn PaDHPase. The assay is classed as binding. Here is the method: The mono-Zn PaDHPase was prepared using the protocol described previously. Purified PaDHPase was dialyzed against a chelating buffer (50 mM MES, 50 mM EDTA, and 15 mM 8-HQSA, pH 6.5; Buffer B) at room temperature for 3 days. The resultant enzyme solution was then dialyzed against Buffer A.
as §2, §3
To confirm the role of Znβ in 5-AU binding and to compare the binding contribution with other mutant proteins (Table 3), we produced mono-Zn PaDHPase (Znα-PaDHPase) for binding analysis. […] The binding of 5-AU to Znα-PaDHPase was also analyzed by the fluorescence quenching method (Figure 4(f)). Upon the addition of 300 μM 5-AU, the intrinsic fluorescence of Znα-PaDHPase was quenched by 49.3%. The Kd value of Znα-PaDHPase for 5-AU binding was calculated to be 281.5 ± 9.0 μM from the titration curve (Figure 4(g)). Based on the Kd values, the strength of complex formation with 5-AU followed the following order: the wild-type enzyme ≈ C318A > N337A > Y155A ≈ S289A > Znα-PaDHPase (Table 3).

Assay [5] concerns the target T4, PaDHPase-Y155A (Pseudomonas aeruginosa, UniProt Q9I676, Y155A).
T4 construct: made in house; host or cells: Escherichia coli BL21 (DE3) (stated for the wild type; mutants purified by the same protocol)
Put plainly: Fluorescence quenching titration of PaDHPase-Y155A mutant. Format: binding.
Text: as §1
Through the fluorescence quenching analysis, the Kd value of the purified PaDHPase was determined. An aliquot of 5-AU was added into the solution containing PaDHPase (0.8 μM) and 50 mM HEPES at pH 7.0. The decrease in the intrinsic fluorescence of PaDHPase was measured at 336 nm upon excitation at 279 nm and 25°C with a spectrofluorimeter (Hitachi F-2700; Hitachi High-Technologies, Japan). […]
Figure 4 Fluorescence titration of PaDHPase with 5-AU. (a) The fluorescence emission spectra of PaDHPase with 5-AU of different concentrations (0–300 μM). The decrease in intrinsic fluorescence of protein was measured at 336 nm upon excitation at 279 nm with a spectrofluorimeter. […] (b) The fluorescence emission spectra of PaDHPase-Y155A with 5-AU of different concentrations (0–300 μM). (c) The fluorescence emission spectra of PaDHPase-S289A with 5-AU. (d) The fluorescence emission spectra of PaDHPase-N337A with 5-AU. (e) The fluorescence emission spectra of PaDHPase-C318A with 5-AU. […]

Assay [6] deals with T5, PaDHPase-C318A (Pseudomonas aeruginosa, UniProt Q9I676, C318A).
T5 construct: made in house; host or cells: Escherichia coli BL21 (DE3) (stated for the wild type; mutants purified by the same protocol)
Put plainly: Fluorescence quenching titration of PaDHPase-C318A mutant. Format: binding.
Text: as §1, §2, §3
Structurally, Cys318 is involved in 5-FU [44] but not 5-AU. For comparison, the C318A mutant was also analyzed by fluorescence quenching (Figure 4(e)). […] The abilities of the wild-type PaDHPase and the C318A mutant to bind 5-AU are approximately equal. Thus, Cys318 is not essential for 5-AU binding.

For assay [7], the target named is T6, PaDHPase-N337A (Pseudomonas aeruginosa, UniProt Q9I676, N337A).
T6 construct: made in house; host or cells: Escherichia coli BL21 (DE3) (stated for the wild type; mutants purified by the same protocol)
Put plainly: Fluorescence quenching titration of PaDHPase-N337A mutant. The assay is classed as binding.
Text: as §1, §2, §3, §4

Assay [8] has as its target T2, Pseudomonas aeruginosa DHPase (PaDHPase). Conditions: read-out: Kd value of PaDHPase bound to 5-FU; wild-type PaDHPase ref 44; cited from earlier work.

T1 sequence (Q9I676 whole entry S289A): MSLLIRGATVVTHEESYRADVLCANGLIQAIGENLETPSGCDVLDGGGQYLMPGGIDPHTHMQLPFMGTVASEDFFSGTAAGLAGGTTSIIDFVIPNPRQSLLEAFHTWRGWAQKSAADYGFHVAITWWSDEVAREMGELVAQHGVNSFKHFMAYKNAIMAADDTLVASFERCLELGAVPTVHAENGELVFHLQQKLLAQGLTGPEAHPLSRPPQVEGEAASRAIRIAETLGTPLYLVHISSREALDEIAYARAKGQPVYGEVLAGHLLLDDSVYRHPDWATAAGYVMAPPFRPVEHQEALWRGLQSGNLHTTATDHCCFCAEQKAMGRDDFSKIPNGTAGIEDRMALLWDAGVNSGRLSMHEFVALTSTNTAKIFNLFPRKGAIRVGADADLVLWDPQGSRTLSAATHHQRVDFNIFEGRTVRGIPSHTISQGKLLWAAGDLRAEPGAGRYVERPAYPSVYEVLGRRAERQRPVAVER
T3 sequence (Q9I676 whole entry): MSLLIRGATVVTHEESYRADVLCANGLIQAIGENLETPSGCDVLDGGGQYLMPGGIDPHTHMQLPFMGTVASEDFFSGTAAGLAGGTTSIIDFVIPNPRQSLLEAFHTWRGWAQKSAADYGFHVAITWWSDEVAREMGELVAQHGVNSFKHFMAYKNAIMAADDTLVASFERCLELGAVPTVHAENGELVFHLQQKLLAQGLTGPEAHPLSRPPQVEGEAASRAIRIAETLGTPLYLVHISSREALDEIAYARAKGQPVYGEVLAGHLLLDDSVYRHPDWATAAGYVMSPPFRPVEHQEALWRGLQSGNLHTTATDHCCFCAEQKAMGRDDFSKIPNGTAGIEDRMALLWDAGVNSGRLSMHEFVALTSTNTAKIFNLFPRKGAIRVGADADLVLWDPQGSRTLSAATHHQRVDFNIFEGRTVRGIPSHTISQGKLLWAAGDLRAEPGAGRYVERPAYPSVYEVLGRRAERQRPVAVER
T2 sequence (Q9I676 whole entry): as above
T6 sequence (Q9I676 whole entry N337A): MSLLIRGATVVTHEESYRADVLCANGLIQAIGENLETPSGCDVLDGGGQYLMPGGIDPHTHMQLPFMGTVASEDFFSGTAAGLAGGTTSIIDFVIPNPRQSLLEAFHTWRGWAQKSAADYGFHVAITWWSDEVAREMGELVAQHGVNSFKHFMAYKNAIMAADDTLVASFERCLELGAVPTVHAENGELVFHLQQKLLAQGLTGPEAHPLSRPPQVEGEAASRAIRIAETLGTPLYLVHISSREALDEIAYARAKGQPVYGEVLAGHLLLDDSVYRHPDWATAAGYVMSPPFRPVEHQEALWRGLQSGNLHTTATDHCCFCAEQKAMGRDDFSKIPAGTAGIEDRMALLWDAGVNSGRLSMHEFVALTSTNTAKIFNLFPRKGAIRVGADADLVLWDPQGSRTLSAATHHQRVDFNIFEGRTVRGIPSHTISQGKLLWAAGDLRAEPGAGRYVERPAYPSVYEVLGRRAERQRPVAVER
T5 sequence (Q9I676 whole entry C318A): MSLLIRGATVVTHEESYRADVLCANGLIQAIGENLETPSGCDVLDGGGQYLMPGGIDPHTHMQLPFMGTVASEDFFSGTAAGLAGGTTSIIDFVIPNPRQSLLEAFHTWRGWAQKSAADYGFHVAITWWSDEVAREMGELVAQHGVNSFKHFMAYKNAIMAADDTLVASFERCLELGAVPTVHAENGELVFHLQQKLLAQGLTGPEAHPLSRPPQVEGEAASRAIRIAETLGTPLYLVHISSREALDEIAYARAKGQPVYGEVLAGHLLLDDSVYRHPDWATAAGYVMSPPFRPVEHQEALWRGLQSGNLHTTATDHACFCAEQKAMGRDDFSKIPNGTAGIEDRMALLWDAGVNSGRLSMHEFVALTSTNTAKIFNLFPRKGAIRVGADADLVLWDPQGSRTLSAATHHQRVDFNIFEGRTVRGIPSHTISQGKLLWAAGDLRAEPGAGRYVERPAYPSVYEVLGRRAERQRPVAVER
T4 sequence (Q9I676 whole entry Y155A): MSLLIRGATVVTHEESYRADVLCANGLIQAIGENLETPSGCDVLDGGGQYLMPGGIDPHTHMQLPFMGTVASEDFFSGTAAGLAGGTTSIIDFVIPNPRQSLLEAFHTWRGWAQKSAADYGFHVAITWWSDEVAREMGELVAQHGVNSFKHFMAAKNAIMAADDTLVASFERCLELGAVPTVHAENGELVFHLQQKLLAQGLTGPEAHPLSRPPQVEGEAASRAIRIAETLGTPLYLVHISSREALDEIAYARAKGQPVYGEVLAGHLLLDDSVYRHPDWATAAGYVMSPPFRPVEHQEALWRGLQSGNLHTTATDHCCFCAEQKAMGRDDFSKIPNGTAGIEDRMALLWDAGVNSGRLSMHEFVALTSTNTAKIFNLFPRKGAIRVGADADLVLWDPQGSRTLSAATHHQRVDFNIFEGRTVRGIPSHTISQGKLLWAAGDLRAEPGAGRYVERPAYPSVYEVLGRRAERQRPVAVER

`Nc1c[nH]c(=O)[nH]c1=O` [5-AU, 5-aminouracil]: the Kd was found to be 256 ± 3.2 µM in assay [1]; 97.7 ± 2 µM in assay [2]; 281 ± 9 µM in assay [4]; 247 ± 4 µM in assay [5]; 103 ± 3.1 µM in assay [6]; 192 ± 8 µM in assay [7]. In addition, the λ em shift in assay [1] (PaDHPase-S289A) is 2.0 nm; in assay [2] (wild-type PaDHPase, red shift on adding 5-AU) it was about 6.5 nm; in assay [4] (Znα-PaDHPase), 1.5 nm; in assay [6] (PaDHPase-C318A), 6.0 nm; in assay [7] (PaDHPase-N337A), 3.5 nm. For the same molecule, the λ max entry is recorded as “From 337 to 339” in assay [1] (PaDHPase-S289A, emission maximum before and after adding 5-AU); “From 336.5 to 343” in assay [2] (wild-type PaDHPase, emission maximum before and after adding 5-AU); “From 335 to 336.5” in assay [4] (Znα-PaDHPase, emission maximum before and after adding 5-AU); “From 336.5 to 342” in assay [5] (PaDHPase-Y155A, emission maximum before and after adding 5-AU); “From 336 to 342” in assay [6] (PaDHPase-C318A, emission maximum before and after adding 5-AU); “From 336 to 339.5” in assay [7] (PaDHPase-N337A, emission maximum before and after adding 5-AU). For the same molecule, the “Quenching (%) of intrinsic fluorescence” value is given as 87.3% in assay [2] (wild-type PaDHPase, 300 μM 5-AU, emission 336 nm, excitation 279 nm) and 49.3% in assay [4] (Znα-PaDHPase (mono-Zn), 300 μM 5-AU). Further, the “induction of biphasic interphase-mitotic (IM) cells” value in assay [3] was “significantly induce biphasic interphase-mitotic (IM) cells”.
`O=c1[nH]cc(F)c(=O)[nH]1` [5-FU, 5-fluorouracil]: the “induction of biphasic interphase-mitotic (IM) cells” value in assay [3] is recorded as “no induction of IM cells was detected”. In addition, the Kd in assay [8] is 133 ± 8.5 µM.

The values above are taken from publication PMC8860565, “Molecular Insights into How the Dimetal Center in Dihydropyrimidinase Can Bind the Thymine Antagonist 5-Aminouracil: A Different Binding Mode from the Anticancer Drug 5-Fluorouracil” (Bioinorganic Chemistry and Applications, 2022).
